Patent US20160002299A1, “NON-IMMUNOSUPPRESSIVE CYCLOSPORIN DERIVATIVES AS ANTIVIRAL AGENTS” (UCL BUSINESS PLC, priority 2013, published 2016)

Columns and labels:
HIV-1 [1] = assay: HIV-1 replication in monocyte derived macrophages (Gag p24 staining, infected cells counted); format: cell-based; details: primary MDM, NL4.3 Bal, MOI 0.2, 10 μM Compound 1 vs DMSO control, FIG. 2
Description: (§1) Primary monocyte-derived macrophages (MDM) were prepared from fresh blood from healthy volunteers. Peripheral blood mononuclear cells were isolated by Ficoll-Hypaque (Axis-Shield) density centrifugation. The isolated cells were washed with PBS and plated in RPMI (Invitrogen) supplemented with 10% heat-inactivated autologous human serum (HS) and 40 ng/ml macrophage colony stimulating factor (M-CSF) (R&D systems). The medium was then refreshed after 3 days (RPMI 1640 with 10% HS), removing any remaining non-adherent cells. After 6 days, media was replenished with
(§2) RPMI containing 5% type AB HS (Sigma-Aldrich-Aldrich). Replicate experiments were performed with cells derived from different donors.
(§3) Virus particles were produced by transient transfection of HEK293T cells. 3.5 μg of molecular clone DNA; NL4.3 Bal was transfected using Fugene 6 transfection reagent (Promega). Virus supernatants were harvested 48 hr, 72 hr and 96 hr post transfection. […] All virus preparations were quantified by reverse transcriptase (RT) enzyme linked immunosorbant assay (ELISA) (Roche). […]
(§4) Institute of Biological Standards AIDS Reagents Programme) and a secondary antibody linked to beta galactosidase. […] Cells were stained for Gag p24 at specific time points after infection and infected colonies counted. […]

IFN-β = IFN-β ELISA of supernatants of HIV-1 infected monocyte derived macrophages; format: cell-based, human; details: HIV-1 infected MDM, 10 μM Compound 1, supernatants, FIG. 3
Description: as §1, §2, §3, §4

HIV-1 [2] = assay: Single round HIV-1 infection of monocyte derived macrophages; format: cell-based; details: MDM at MOI of 0.1-1, in the presence of Compound 1, FIG. 4
Description: as §1, §2, §3, §4

For `C/C=C/C[C@@H](C)[C@@H](O)[C@H]1C(=O)N[C@@H](CC)C(=O)N(C)[C@H](Cc2ccc(C(=O)O)cc2)C(=O)N(C)[C@@H](CC(C)C)C(=O)N[C@@H](C(C)C)C(=O)N(C)[C@@H](CC(C)C)C(=O)N[C@@H](C)C(=O)N[C@H](C)C(=O)N(C)[C@@H](CC(C)C)C(=O)N(C)[C@@H](CC(C)C)C(=O)N(C)[C@@H](C(C)C)C(=O)N1C` [Compound 1], the “HIV-1 replication (number of infected cells)” value (HIV-1 [1]) was “completely suppressed HIV-1 replication”, the “production of IFN-β” value (IFN-β) was “elicited the production of IFN-β” and the “infection lower after single round infection” value (HIV-1 [2]) was 5-7 fold.
